Assay: gradient 5% acetonitrile 3 min, to 50% in 2 min, to 85% in 15 min, held 3 min, 100 µL/min
Conditions: column: Zorbax Extend-C18 2.1 x 50 mm; eluents: water / acetonitrile, 0.1% formic acid
How it was run: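 Retention times of pure standards were taken from adduct peaks that were selected by computer and manually inspected. Over 3 months, mixtures of ~100 molecules were run by HPLC–quadrupole time-of-flight mass spectrometry in positive and negative ionization mode. The Zorbax Extend-C18 column (2.1 × 50 mm, 1.8 μm) ran at 100 μL/min in water and acetonitrile, each containing 0.1% formic acid, with 40 μL dead volume and 900 μL dwell volume.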

SMILES | RP-LC retention time [s]
CCc1ccccc1NC(=O)C1CC(=O)N(c2ccc3oc(C)nc3c2)C1 (stereo unspecified) | 723
COCCOCc1nc(C2CCCN2S(=O)(=O)Cc2ccccc2)no1 (stereo unspecified) | 748
O=C(NC1CC1)c1cccc2c1CCN2C(=O)c1ccc(F)cc1 | 739
O=C(c1cccnc1)N1CCC(c2noc(-c3cnccn3)n2)C1 (stereo unspecified) | 581
Cc1cc(C)cc(-c2nnc(Cc3nc(-c4ccncc4)no3)o2)c1 | 886
O=C(Nc1ccc2c(c1)OCCO2)N1CCCC1c1nc(CCOCC2CC2)no1 (stereo unspecified) | 788
CN(C)CCNC(=O)c1ncn2c1C(=O)N(C1CC1)C(C)(C(=O)NCc1ccc(F)cc1)C2 (stereo unspecified) | 600
CCCN(CCC)C(=O)C1COC2(CCN(C(=O)c3ccco3)CC2)N1C(=O)c1ccccc1 (stereo unspecified) | 778
Cc1ccc(C(=O)N2CCCn3nc(-c4ccc(Cl)cc4)cc3C2)s1 | 931
Cn1ncc(N2CCCC(C(=O)Nc3ccc4c(c3)CCC4)C2)cc1=O (stereo unspecified) | 786
CCC(C)NC(=O)c1nn(-c2ccc(OC)cc2)c(OC)cc1=O (stereo unspecified) | 692
Cc1ccc(-c2coc(-c3cccc(NS(=O)(=O)c4ccc(Cl)s4)c3)n2)cc1 | 1310
N#Cc1ccccc1CN1CC[C@@H]2CN(Cc3cccnc3)[C@@H]2C1 | 556
O=C(c1cn(-c2ccc(-c3nc(C4CC4)no3)cn2)cn1)N1CCCCC1 | 864
CC(C)c1ccc(-c2csc(NC(=O)c3ccncc3)n2)cc1 | 989
CCCC(=O)N1CCc2c([nH]c3ccccc23)C1c1ccc(SC)cc1 (stereo unspecified) | 1170
N#Cc1cccc(-c2cn3c(n2)N(C(=O)c2cccnc2)CCC3)c1 | 641
CN(CCc1ccccn1)C(=O)c1cn2ccnc(-c3ccccc3)c2n1 | 563
Cc1cc(-c2nnc(NC(=O)Cn3cnc4c3c(=O)n(C)c(=O)n4C)o2)n(C)n1 | 580
O=C(Cn1ccc2ccn(Cc3ccccc3)c2c1=O)NCc1ccccc1Cl | 888
CCCN(CCc1cccs1)C1CCc2c(O)cccc2C1 (stereo unspecified) | 757
O=C(NCCc1noc(C2CC2)n1)c1ccc(Cl)s1 | 795

SMILES | RP-LC retention time [s]
Cc1nccn1CC(=O)N1CCCn2cc(-c3ccccc3F)nc21 | 644
CCOc1ccccc1NC(=O)NCc1nc(-c2ccccc2)oc1C | 963
CCOc1ccc(-c2nc(C3CC(=O)N(c4ccc(Cl)cc4)C3)no2)cc1 (stereo unspecified) | 1130
CNC(=O)c1cc(Cc2ccc3nc(Nc4cccc(C(F)(F)F)c4)[nH]c3c2)ccn1 | 680
Cc1c(C(=O)NCC2CC2)cnn1-c1cc(-c2nc(C(C)(C)C)no2)ccn1 | 742
Cc1cc(C)cc(Oc2nccn3c(=O)n(CC(=O)NCc4ccccc4)nc23)c1 | 860
COc1ccc(N2CC(c3noc(-c4ccc(C)cc4)n3)CC2=O)cc1OC (stereo unspecified) | 909
CCCCC(Sc1nc(=O)[nH]c(C)c1C(=O)OCC)C(=O)O (stereo unspecified) | 663
COc1ccc(C2Cn3cnc(C(=O)N4CCC(C(=O)NC5CCC(C)CC5)CC4)c3CO2)cc1 (stereo unspecified) | 821
O=C(COc1ccccc1F)Nc1ccc2c(c1)CN(C(=O)c1ccco1)CC2 | 770
Cc1cc(N2CCCCC2)nc(N2CCN(C(=O)c3ccc(-c4ccccc4)cc3)CC2)n1 | 837
O=C(C1=CN(c2cccc(F)c2)c2cc(F)ccc2S1(=O)=O)N1CCCCC1 | 872
O=C(O)CC1(CC(=O)Nc2nc(-c3cccc4ccccc34)cs2)CCCC1 | 1040
COc1cccc(S(=O)(=O)N2CCC3(CC2)CC(OCC2CC2)CCO3)c1 (stereo unspecified) | 1010
Cc1ccc(NC(=O)Cn2c(C)nc3c(sc4nc(-c5ccccc5)ccc43)c2=O)c(C)c1 | 1090
O=C(c1cn(-c2cc(-c3nc(C4CC4)no3)ccn2)cn1)N1CCCC1 | 767
CCC(=O)N1CCN(c2nc3c(s2)CC(C(=O)O)CC3)CC1 (stereo unspecified) | 578
Cc1cc(C)n(-c2nc(C)c(C)c(=O)n2CC(=O)N2CCCc3ccccc32)n1 | 907
Cn1nc(-c2nnc(-c3ccc(F)cc3)o2)c2c1CCN(S(=O)(=O)c1ccc(C(C)(C)C)cc1)C2 | 1180
O=C(c1ccc([N+](=O)[O-])o1)N1CCN(C(=O)C2CC2c2cccs2)CC1 (stereo unspecified) | 752
CC1CCN(c2ncc3c(n2)CCC(C(=O)NCCc2cccnc2)C3)CC1 (stereo unspecified) | 598
CCOC(=O)c1nc(NCCc2ccc(C)cc2)c2ccccc2n1 | 821

SMILES | RP-LC retention time [s]
Cc1ccc(N2CCC(NC(=O)C(C)C)C2=O)cc1C (stereo unspecified) | 762
COc1ccc(Br)cc1CNC(=O)C1CCN(c2ccc3nnc(C)n3n2)CC1 | 797
COc1ccc(OC)c2nc3c(C(=O)NCCN(C)C)cccc3nc12 | 595
COc1ccc(-c2ccc(=O)n(CCCNC(=O)c3ccc(S(N)(=O)=O)cc3)n2)cc1 | 812
COc1ccc(NS(=O)(=O)c2cc3c(s2)CCN(C(=O)C2CC2)C3)cc1 | 774
COc1ccc(N2CC(c3nc(-c4cccc(Cl)c4)no3)CC2=O)cc1 (stereo unspecified) | 973
CCc1ccc(NC(=O)N2CCC(n3cnc4cc(F)ccc4c3=O)CC2)cc1 | 867
Cc1ccccc1Nc1c(-c2ccc(O)cc2)nc2ccccn12 | 653
CCN(CC)C(=O)N1CC(c2nc(-c3ccncc3)nn2C)C1 | 566
O=C(Cn1cnc2nc(N3CCCC(C(=O)NC4CC4)C3)sc2c1=O)NCCC1=CCCCC1 (stereo unspecified) | 722
COc1ccc2c(c1)C1(CCN(C(=O)Nc3ccc(C)cc3)C1)C(=O)N2 (stereo unspecified) | 745
CCS(=O)(=O)N1CC(=O)N(Cc2cccc(C)c2)C(C)(C(=O)NCc2ccc(F)cc2)C1 (stereo unspecified) | 882
CC(=O)N1CCc2cc(N3CC(C(=O)Nc4ccccc4OC(F)(F)F)CC3=O)ccc21 (stereo unspecified) | 766
O=C(CCC(=O)N1CCOc2ccccc21)Nc1c(F)c(F)c(F)c(F)c1F | 912
Cc1cc(C)c2c(N3CCCCC3)nc(C(=O)NCC3CCCO3)nc2n1 (stereo unspecified) | 621
CCC1=C(c2ccc(C)cc2)S(=O)(=O)N=C1N1CCC(C(=O)NC(C)Cc2ccco2)CC1 (stereo unspecified) | 894
COc1ccc(C(=O)N2CCN(c3cc(-c4cccs4)[nH]n3)CC2)c(OC)c1 | 739
CCN1CCN(CCCNC(=O)C2CCCN(c3nnc(-n4c(C)ccc4C)s3)C2)CC1 (stereo unspecified) | 592
O=C(Nc1ccc(Br)cc1)C1CCN(c2cc(N3CCCC3)ncn2)CC1 | 721
COC(=O)c1cc2c(=O)n(-c3ccc4c(c3)OCCO4)ccc2nc1C | 780
Cc1c(Cl)cccc1NC(=O)C1CCCN(c2nnc(C)c3c(C)n(-c4ccccc4)nc23)C1 (stereo unspecified) | 784
CCn1c(CCNC(=O)c2ccc(OC)nc2)nc2cccnc21 | 732
